Tests used:
mTOR1/4E-BP1/AKT1 axis = assay: XL388-induced mTOR inhibition during hMSCs-osteoblast differentiation (qPCR, western blot); assay type: cell-based, human
Protocol: hMSCs were differentiated into osteoblasts with/without […] XL388 or 0.1 μg ml^−1 HKUOT-S2 treatments for 7 days with medium replenishments every 3 days. The collected cell pellets were processed for qPCR and western blot analyses to establish the mechanism by which HKUOT-S2 promotes osteogenesis and new bone formation. The lists of all the genes and corresponding primer pairs as well as primary and secondary antibodies used for qPCR and western blot analyses are listed in Tables 6, 7 and 8.

[1] = test system: ovariectomized (OVX) mice; assay: OVX-induced osteoporosis, femur μCT; assay type: in vivo, mouse
Protocol: A total of 32 female C57BL/6J mice at the age of 8-12 weeks old and weighing between 22-25 g were used in this study. All mice underwent dorsoventral surgical operation under anesthesia. The sham control underwent surgery without ovary removal. The ovaries were completely removed from the anterior uterine horns in the OVX group. There were four groups, namely sham control (n=8), OVX control (n=8), OVX+30 μg kg^−1 estrogen (E2, n=8), and OVX+2.18 mg kg^−1 HKUOT-S2 (n=8) treatment groups. The sham and OVX control mice were given subcutaneous of 200 μl of 1XBP. The OVX+E2 and OVX+HKUOT-S2 groups were given 200 μl E2 and HKUOT-S2 via subcutaneous and IP injections respectively. All treatments started 4 hrs after the surgery and thrice per week for 4 weeks post-surgery. Micro CT (μCT) scans were taken on day zero and biweekly post-surgery. At the experimental endpoint, all the mice in the groups were sacrificed under overdose of anesthesia, the bone tissues harvested and processed for bone histomorphometry and immunohistochemical analyses.

hMSCs = hMSCs to osteoblast differentiation; assay type: cell-based, human
Protocol: The hMSCs and MC3T3-1E cell lines were seeded at 2.5×10^4 cells/well and 2.5×10^3 cells/well of 6-well plate respectively, containing 2 ml of normal cell culture media. The cell culture media were then replaced with osteogenic media containing 100 nM Dex, 10 mM β-Gly and 0.28 mM Asc with or without the HKUOT-S2 protein. The cells were maintained in the osteogenic media for 14 days with media replacement every 3 days. The nondifferentiated cells maintained in the normal cell culture media were used as controls. The cell pellets were then collected and processed for osteogenic gene expression analysis by qPCR at the experimental endpoints.
High Quality Total RNAs, with OD260/OD280 Between 1.98-2.00, were extracted from the in vitro experimented cell lines and the tissues harvested from the in vivo experiments using RNAiso plus reagent (Cat #9109) according to the manufacturer's protocol. The quality and quantity of the extracted RNAs were determined using the NanoDrop One (C) UV-VIS micro-volume spectrophotometer (Thermo Scientific). Equal amount of RNAs across the experimental groups were reverse transcribed into complementary DNA (cDNA) using the PrimeScript™ RT reagent Kit (cat #RR037A, Takara) and Peltier Thermal Cycler (Cat #PTC-100, MJ Research) according to the manufacturers' instructions. Specific primer pairs, equal amount of cDNA for the various experimental groups and the PowerUp™ SYBR™ Green Master Mix (Cat #A25742, Thermo Scientific) were used to prepare the qPCR reaction mix. 10 μl of the qPCR reaction mix of the control and HKUOT-S2 treatment groups, loaded into 96-well plate (0.2 ml) were used evaluate the HKUOT-S2-induced gene expressions in the cell lines from the in vitro and the harvested tissues from the in vivo experiments using the QuantStudio 5 real-time PCR system (Thermo Scientific). The HKUOT-S2-induced differentially gene expression fold changes were calculated by 2^−ΔΔCt method after housekeeping gene normalization.

[2] = 250 nM XL388 alone, western blot
[3] = femur of OVX mice, 2.18 mg/Kg HKUOT-S2, 0.5 mg/Kg SEQ ID NO: 83, n=3
[4] = 0.1 μg/ml HKUOT-S2, 0.01 μg/ml SEQ ID NO: 83

Compound: Cc1c(C(=O)N2CCOc3ccc(-c4ccc(N)nc4)cc3C2)ccc(S(C)(=O)=O)c1F [XL388]
- 4E-BP1 expression (mTOR1/4E-BP1/AKT1 axis; 125 nM XL388 alone, qPCR): significantly suppressed
- AKT1 expression (mTOR1/4E-BP1/AKT1 axis; 125 nM XL388 alone, qPCR): significantly suppressed
- MTOR1 expression (mTOR1/4E-BP1/AKT1 axis; 125 nM XL388 alone, qPCR): significantly suppressed
- RUNX2 expression (mTOR1/4E-BP1/AKT1 axis; 125 nM XL388 alone, qPCR): significantly suppressed
- S6K1 expression (mTOR1/4E-BP1/AKT1 axis; 125 nM XL388 alone, qPCR): significantly suppressed
- phosphorylation of 4E-BP1 (mTOR1/4E-BP1/AKT1 axis; [2]): prevented
- phosphorylation of MTOR1 (mTOR1/4E-BP1/AKT1 axis; [2]): prevented
- ALP expression (mTOR1/4E-BP1/AKT1 axis; XL388-induced mTOR inhibition): no effects

Compound: TKSSLPGQTK (HKUOT-S2 peptide) [SEQ ID NO: 83]
- osteoporosis suppression effects compared with the 2.18 mg/Kg HKUOT-S2 treatment group ([1]; 0.5 mg/Kg SEQ ID NO: 83, OVX mice): stronger
- bone surface area to bone volume ratio (BS/BV) [1, 3]: decreased
- bone surface area to tissue volume (BS/TV) ratio [1, 3]: significantly increasing
- bone volume (BV/TV) [1, 3]: significantly increasing
- trabecular number (Tb. N) [1, 3]: significantly increasing
- trabecular separation (Tb. Sp) [1, 3]: decreased
- trabecular thickness (Tb.th) [1, 3]: significantly increasing
- osteogenic effects compared to the HKUOT-S2 treatment (hMSCs): robust
- ALP activities (hMSCs; [4]): significantly increased
- ALP mRNA expression (hMSCs; [4]): increasing
- oestrogen receptor α (ERα) mRNA expression (hMSCs; [4]): increasing
- osteoblast biomineralization (hMSCs; [4]): significantly increased
- COL-1A expression (hMSCs; 0.01μ gml^−1): increasing

Source: patent US20260049109A1, “NOVEL IMMUNOMODULATORY, NEUROMODULATORY, OSTEOGENIC, AND ANTI-OSTEOPOROTIC HKUOT-S2 PROTEIN THAT ENHANCES BONE FRACTURE REPAIRS AND SUPPRESSES OSTEOPOROSIS DEVELOPMENT” (The University of Hong Kong, priority 2022, published 2026)
